Test results reported in patent publication US12583825B2, “Benzo[h]quinazolin-4-amine and thieno[3,2-h]quinazolin-4-amine derivatives for the treatment of cancer” (Redona Therapeutics, Inc., priority 2020, dated 2026).

Key:
[1] = tested on: MDA-MB-231 cells; assay: MDA-MB-231 proliferation assay; type: cell-based; conditions: Homo sapiens, 72 hours, YO-PRO-1 readout
Protocol: MDA-MB-231 Proliferation Assay
MDA-MB-231 cells were cultivated in DMEM High Glucose (4.5 g/L) with L-Glutamine (BioConcept, cat. no. 1-26F03-I) supplemented with 1% Na-pyruvate (Sigma, cat. no. S8636), 1% Penicillin-Streptomycin (BioConcept, cat. no. 4-01F00H), and 10% FBS (Sigma, cat. no. F9665) using standard techniques. Cells were seeded in black, clear-bottom 384 well plates for tissue culture (Greiner Bio-One, cat. no. 781091) at a density of 750 cells per well in 20 μL medium and the plates were incubated overnight at 37° C. with 5% CO2 prior to treatment. Experimental compounds were serially diluted in DMSO to 200× the desired final concentrations. The solutions were then diluted 1:40 with culture medium and 5 μL aliquots were mixed into the wells containing the cells. The final concentration of DMSO was 0.5%. The plates were incubated for 72 hours and cell numbers were then measured using YO-PRO™-1 Iodide (ThermoFisher Scientific, cat. no. Y3603) essentially as recommended by the manufacturer. […] The plates were incubated at room temperature in the dark for 30 minutes. Fluorescence intensity signals were then measured on a Synergy 4 reader (BioTek) using 485/20 nm and 530/25 nm filters for the excitation and emission, respectively. Relative proliferation values were calculated by normalizing the raw data using DMSO-treated cells (100% proliferation) and the signals obtained from cells that were evaluated at the time of compound addition (0% proliferation). The concentration-response data were fitted to a sigmoidal 4-parameter logistic model with the maximum constrained to 100%.

[2] = target: T1, recombinant human CLK3 (Homo sapiens, UniProt P49761); assay: CLK3 kinase assay (LANCE Ultra); type: biochemical; conditions: 0.5 nM CLK3, 300 μM ATP, 3 hours at 30° C.
T1 construct: purchased Thermo Fisher Scientific PV3826
Protocol: CLK3 kinase activity was measured using the LANCE® Ultra technology (PerkinElmer) essentially as recommended by the supplier. Briefly, 2.5 μL of test sample at 4× the desired final concentration in 4% DMSO were dispensed into white, low volume, round bottom, 384 well plates (Corning, cat. no. 4512). 5 μL of a mixture containing recombinant human CLK3 (Thermo Fisher Scientific, cat. no. PV3826) and the labeled peptide substrate ULight™-CREBtide (PerkinElmer, cat. no. TRF0107) prepared in 1.33× kinase buffer (Thermo Fisher Scientific, cat. no. PV3189) were then added. Finally, the reactions were started by adding 2.5 μL of a 4× solution of ATP in kinase buffer. The plates were sealed with adhesive foils and incubated for 3 hours at 30° C. in the dark. The final concentrations of CLK3, ULight™—CREBtide, and ATP were 0.5 nM, 50 nM, and 300 μM, respectively. 5 μL of 40 mM EDTA were then added to terminate the reactions. The Eu-anti-phospho-CREB antibody (PerkinElmer, cat. no. TRF0200) diluted in LANCE® detection buffer (PerkinElmer, cat. no. CR97) was then added to a final concentration of 2 nM and the reactions were incubated for 1 hour at room temperature in the dark. The signals were measured using a Synergy 4 reader (BioTek) with a 320/80 nm filter for the excitation and 620/10 nm and 665/8 nm filters for the donor and acceptor emission, respectively. […] IC50 values were calculated by fitting the concentration-response data to a sigmoidal 4-parameter logistic model.

T1 sequence (P49761 whole entry): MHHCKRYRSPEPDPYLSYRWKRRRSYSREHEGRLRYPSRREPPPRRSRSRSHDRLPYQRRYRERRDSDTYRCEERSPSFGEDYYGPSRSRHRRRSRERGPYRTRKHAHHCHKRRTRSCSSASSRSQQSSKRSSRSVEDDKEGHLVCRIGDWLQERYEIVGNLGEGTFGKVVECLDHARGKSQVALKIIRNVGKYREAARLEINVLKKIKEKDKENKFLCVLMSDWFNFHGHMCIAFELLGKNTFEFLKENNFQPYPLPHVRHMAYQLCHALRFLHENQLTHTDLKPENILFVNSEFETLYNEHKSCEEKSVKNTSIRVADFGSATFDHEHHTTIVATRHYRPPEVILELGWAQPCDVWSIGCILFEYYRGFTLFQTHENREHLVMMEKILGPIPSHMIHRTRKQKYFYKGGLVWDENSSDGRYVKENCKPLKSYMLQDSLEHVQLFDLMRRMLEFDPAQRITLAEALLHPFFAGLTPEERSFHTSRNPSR

Row | Structure (SMILES) | GI50 [1] [nM] | IC50 [2] [nM]
1 | CN1C[C@@H](CO/N=C2\c3cc(Cl)ccc3-c3ncnc(N)c3C2(C)C)OC1=O [Example 52, (5S)-5-[[(Z)-(4-amino-8-chloro-5,5-dimethyl-benzo[h]quinazolin-6-ylidene)amino]oxymethyl]-3-methyl-oxazolidin-2-one] | 445 | < 1.5
2 | CN1C[C@@H](CO/N=C2\c3cc(Br)ccc3-c3ncnc(N)c3C2(C)C)OC1=O [Example 53, (5S)-5-[[(Z)-(4-amino-8-bromo-5,5-dimethyl-benzo[h]quinazolin-6-ylidene)amino]oxymethyl]-3-methyl-oxazolidin-2-one] | 194 | < 1.5
3 | CC1(C)/C(=N/OCCC#N)c2cc(O[C@H]3CC[C@H](N)CC3)ccc2-c2ncnc(N)c21 [Example 55, 3-[(Z)-[4-amino-8-(trans-4-aminocyclohexoxy)-5,5-dimethyl-benzo[h]quinazolin-6-ylidene]amino]oxypropanenitrile] | 169 | 15.6
4 | CN1C[C@@H](CO/N=C2\c3cc(O[C@H]4CC[C@H](N)CC4)ccc3-c3ncnc(N)c3C2(C)C)OC1=O [Example 56, (5S)-5-[[(Z)-[4-amino-8-(trans-4-aminocyclohexoxy)-5,5-dimethyl-benzo[h]quinazolin-6-ylidene]amino]oxymethyl]-3-methyl-oxazolidin-2-one] | 332 | < 1.5
5 | CO/N=C1\c2cc(O[C@@H]3CC[C@@H](N)[C@@H](F)C3)ccc2-c2ncnc(N)c2C1(C)C [Example 57, (6Z)-6-methoxyimino-5,5-dimethyl-8-[-(1R,3S,4R)-4-amino-3-fluoro-cyclohexoxy]benzo[h]quinazolin-4-amine] | 207 | 2.76
6 | COc1ccc2c(c1)/C(=N\OCCN)C(C)(C)c1c(N)ncnc1-2 [Example 58, (6Z)-6-(2-aminoethoxyimino)-8-methoxy-5,5-dimethyl-benzo[h]quinazolin-4-amine] | > 2000 | 90.4
7 | COc1ccc2c(c1)/C(=N\OCCCN)C(C)(C)c1c(N)ncnc1-2 [Example 59, (6Z)-6-(3-aminopropoxyimino)-8-methoxy-5,5-dimethyl-benzo[h]quinazolin-4-amine] | > 2000 | 265
8 | CC1(C)/C(=N\OCCC#N)c2cc(O[C@H]3CC[C@H](N)CC3)ccc2-c2ncnc(N)c21 [Example 60, 3-[(E)-[4-amino-8-(trans-4-aminocyclohexoxy)-5,5-dimethyl-benzo[h]quinazolin-6-ylidene]amino]oxypropanenitrile] | > 2000 | 116
9 | CO/N=C1\c2cc(O)ccc2-c2ncnc(N)c2C1(C)C [Example 61, (6Z)-4-amino-6-methoxyimino-5,5-dimethyl-benzo[h]quinazolin-8-ol] | > 2000 | 53.6
10 | CO/N=C1\c2cc(OC3CCNCC3)ccc2-c2ncnc(N)c2C1(C)C [Example 66, (6Z)-6-methoxyimino-5,5-dimethyl-8-(4-piperidyloxy)benzo[h]quinazolin-4-amine] | 1750 | 13
11 | COc1ccc2c(c1)/C(=N\OC[C@@H]1CNC(=O)C1)C(C)(C)c1c(N)ncnc1-2 [Example 72, (4S)-4-[[(Z)-(4-amino-8-methoxy-5,5-dimethyl-benzo[h]quinazolin-6-ylidene)amino]oxymethyl]pyrrolidin-2-one] | > 2000 | 79.3
12 | COc1ccc2c(c1)/C(=N\OC[C@H]1CNC(=O)C1)C(C)(C)c1c(N)ncnc1-2 [Example 73, (4R)-4-[[(Z)-(4-amino-8-methoxy-5,5-dimethyl-benzo[h]quinazolin-6-ylidene)amino]oxymethyl]pyrrolidin-2-one] | > 2000 | 385

The remaining lines, values ahead:

Row | GI50 [1] [nM] | IC50 [2] [nM] | Structure (SMILES)
13 | 472 | 3.4 | CO/N=C1\c2cc(C[C@H]3CC[C@@H](N)CC3)ccc2-c2ncnc(N)c2C1(C)C [Example 75, (6Z)-8-[(cis-4-aminocyclohexyl)methyl]-6-methoxyimino-5,5-dimethyl-benzo[h]quinazolin-4-amine]
14 | > 2000 | < 41 | COc1ccc2c(c1)/C(=N\OC[C@H]1CC(=O)N(C)C1)C(C)(C)c1c(N)ncnc1-2 [Example 76, (4S)-4-[[(Z)-(4-amino-8-methoxy-5,5-dimethyl-benzo[h]quinazolin-6-ylidene)amino]oxymethyl]-1-methyl-pyrrolidin-2-one]
15 | > 2000 | 84.8 | CO/N=C1\c2cc(OC)cc(F)c2-c2ncnc(N)c2C1(C)C [Example 77, (6Z)-10-fluoro-8-methoxy-6-methoxyimino-5,5-dimethyl-benzo[h]quinazolin-4-amine]
16 | > 2000 | 66.3 | C[C@@H](O)CO/N=C1\c2cc(O[C@H]3CC[C@H](N)CC3)ccc2-c2ncnc(N)c2C1(C)C [Example 78, (2R)-1-[(Z)-[4-amino-8-(trans-4-aminocyclohexoxy)-5,5-dimethyl-benzo[h]quinazolin-6-ylidene]amino]oxypropan-2-ol]
17 | > 2000 | 51.5 | COCCO/N=C1\c2cc(Br)ccc2-c2ncnc(N)c2C1(C)C [Example 80, (6Z)-8-bromo-6-(2-methoxyethoxyimino)-5,5-dimethyl-benzo[h]quinazolin-4-amine]
18 | > 2000 | 15.8 | CC1(C)/C(=N/OCCC#N)c2cc(Br)ccc2-c2ncnc(N)c21 [Example 81, 3-[(Z)-(4-amino-8-bromo-5,5-dimethyl-benzo[h]quinazolin-6-ylidene)amino]oxypropanenitrile]
19 | > 2000 | 10.6 | CC1(C)/C(=N/O)c2cc(Br)ccc2-c2ncnc(N)c21 [Example 84, (Z)-4-amino-8-bromo-5,5-dimethyl-benzo[h]quinazolin-6-one oxime]
20 | > 2000 | 125 | CC1(C)/C(=N\O)c2cc(Br)ccc2-c2ncnc(N)c21 [Example 85, (E)-4-amino-8-bromo-5,5-dimethyl-benzo[h]quinazolin-6-one oxime]
21 | > 2000 | 63 | CC1(C)/C(=N/OCCO)c2cc(Br)ccc2-c2ncnc(N)c21 [Example 86, 2-[(Z)-(4-amino-8-bromo-5,5-dimethyl-benzo[h]quinazolin-6-ylidene)amino]oxyethanol]
22 | > 2000 | 142 | CC1(C)/C(=N/OC[C@@H]2CNC(=O)O2)c2cc(C#N)ccc2-c2ncnc(N)c21 [Example 92, (6Z)-4-amino-5,5-dimethyl-6-[[(5S)-2-oxooxazolidin-5-yl]methoxyimino]benzo[h]quinazoline-8-carbonitrile]
23 | > 2000 | 18.6 | CC1(C)/C(=N/OC[C@@H]2CNC(=O)O2)c2cc(OCCO)ccc2-c2ncnc(N)c21 [Example 94, (5S)-5-[[(Z)-[4-amino-8-(2-hydroxyethoxy)-5,5-dimethyl-benzo[h]quinazolin-6-ylidene]amino]oxymethyl]oxazolidin-2-one]
24 | 1040 | 62.5 | COCCO/N=C1\c2cc(N[C@H]3CC[C@H](N)CC3)ccc2-c2ncnc(N)c2C1(C)C [Example 95, (6Z)—N8-(trans-4-aminocyclohexyl)-6-(2-methoxyethoxyimino)-5,5-dimethyl-benzo[h]quinazoline-4,8-diamine]
25 | 670 | 43.6 | COCCO/N=C1\c2cc(N[C@H]3CC[C@@H](N)CC3)ccc2-c2ncnc(N)c2C1(C)C [Example 96, (6Z)—N8-(cis-4-aminocyclohexyl)-6-(2-methoxyethoxyimino)-5,5-dimethyl-benzo[h]quinazoline-4,8-diamine]
